The values that follow come from patent US20240180909A1, “Dosing Regimens for Elagolix” (AbbVie Inc., priority 2018, published 2024).

The structures appear in SMILES notation.

For the series, the system named is premenopausal women with heavy menstrual bleeding associated with uterine fibroids. Kind of series: Twelve month study with 300 mg BID (initial studies and extension study), heavy menstrual bleeding responder rate. The class given is in vivo, human. As for the experimental part: This study was a randomized, double-blind, multicenter, extension study designed to evaluate the efficacy and safety of elagolix alone and in combination with an exemplary low-dose hormone (add-back) therapy (estradiol (“E2”) 1.0 mg/norethindrone acetate (“NETA”) 0.5 mg) in premenopausal women with heavy menstrual bleeding associated with uterine fibroids for up to 12 months total (an initial 6 months on active treatment in one of two replicate initial (i.e., pivotal) studies and an additional 6 months in this extension study.
Subjects who received elagolix 300 mg twice daily or elagolix 300 mg twice daily in combination with E2/NETA in the initial studies continued to receive the same treatment (n=94 and 206, respectively) while subjects who received placebo in the initial studies were randomized in an equal ratio to one of the two treatment groups (elagolix 300 mg BID (n=56) or elagolix 300 mg BID+E2/NETA (n=54)).
The primary efficacy endpoint was the percentage of subjects meeting the responder criteria: a) menstrual blood loss (MBL) volume<80 mL during the final, AND b) 50% or greater reduction in MBL volume from baseline to the final month. […]

For `COc1cccc(-c2c(C)n(Cc3c(F)cccc3C(F)(F)F)c(=O)n(C[C@H](NCCCC(=O)O)c3ccccc3)c2=O)c1F` [Elagolix, 4-((R)-2-[5-(2-fluoro-3-methoxy-phenyl)-3-(2-fluoro-6-trifluoromethyl-benzyl)-4-methyl-2,6-dioxo-3,6-dihydro-2H-pyrimidin-1-yl]-1-phenyl-ethylamino)-butyric acid], the “Hypoestrogenic effects, such as hot flush and reduction in bone mineral density” value (initial and extension studies, elagolix 300 mg BID) is recorded as “observed”. Further, for the setting “up to twelve months of treatment”, the safety signals entry is on record as “no new safety signals”.
